From patent US20200138031A1, “MIXTURES OF SABADILLA ALKALOIDS AND N-OCTYL BICYCLOHEPTENE DICARBOXIMIDE AND USES THEREOF” (priority 2016, published 2020)

System: house fly (Musca domestica)
Experiment: direct spray bioassay against house fly
Assay type: in vivo
Settings: for % Mortality: Hour 4; for mortality at 0.025 % strength / mortality at 0.1 % strength / mortality at 0.25 % strength / mortality at 1 % strength: Musca domestica
Experimental: To determine if the mixtures provided unexpected results, the observed combined efficacy (“OCE”) was divided by the expected combined efficacy (“ECE”) to give an OCE/ECE ratio wherein the expected ECE is calculated by the Abbott method: […]
wherein ECE is the expected combined efficacy and in which A and B are the efficacy provided by the single active ingredients. If the ratio between the OCE of the mixture and the ECE of the mixture is greater than 1, then greater than expected interactions are present in the mixture. (Gisi, The American Phytopathological Society, 86:11, 1273-1279, 1996).
A direct spray bioassay for a mixture of sabadilla N-octyl and MGK264 against house fly (Musca domestica) was conducted on Mar. 6-13, 2019. A water-based formulation containing Sabadilla alone, MGK264 alone, or these combinations were prepared using test products and distilled water. Ten adults (females) of the house fly were put into 650 mL clean cup (100 mm diameter×70 mm height) laid a filter paper (106 mm diameter) at the bottom, and the cup was covered with 1 mm mesh nylon net. The cup was set on the bottom of CSMA chamber (460 mm×460 mm×700 mm height), and 0.5 mL of water (control) or water-based formulation of test products was sprayed from the distance of 30 cm toward the cup at the air pressure of 0.039 MPa (0.4 kg/cm2). […] The test was repeated 4 times and calculated mortality (%) at each observation point.

Structure (SMILES): CCCCC(CC)CN1C(=O)C2C3C=CC(C3)C2C1=O (stereo not shown) [MGK264, N-octyl bicycloheptene dicarboximide]
- % Mortality (0.025 % w/w): 0.0%
- % Mortality (0.1 % w/w): 0.0%
- % Mortality (0.25 % w/w): 0.0%
- % Mortality (1.0 % w/w): 0.0%
- mortality at 0.025 % strength (24 h, 0.025 % w/w, Day 1): 0%
- mortality at 0.1 % strength (24 h, 0.1 % w/w, Day 1): 0%
- mortality at 0.25 % strength (24 h, 0.25 % w/w, Day 1): 0%
- mortality at 1 % strength (24 h, 1.0 % w/w, Day 1): 2.5%
- mortality at 0.025 % strength (48 h, 0.025 % w/w, Day 2): 7.3%
- mortality at 0.1 % strength (48 h, 0.1 % w/w, Day 2): 10%
- mortality at 0.25 % strength (48 h, 0.25 % w/w, Day 2): 10%
- mortality at 1 % strength (48 h, 1.0 % w/w, Day 2): 12.5%
- mortality at 0.025 % strength (120 h, 0.025 % w/w, Day 5): 34.1%
- mortality at 0.1 % strength (120 h, 0.1 % w/w, Day 5): 37.5%
- mortality at 0.25 % strength (120 h, 0.25 % w/w, Day 5): 42.5%
- mortality at 1 % strength (120 h, 1.0 % w/w, Day 5): 72.5%
- mortality at 0.025 % strength (144 h, 0.025 % w/w, Day 6): 53.7%
- mortality at 0.1 % strength (144 h, 0.1 % w/w, Day 6): 37.5%
- mortality at 0.25 % strength (144 h, 0.25 % w/w, Day 6): 50%
- mortality at 1 % strength (144 h, 1.0 % w/w, Day 6): 80%
- mortality at 0.025 % strength (168 h, 0.025 % w/w, Day 7): 68.3%
- mortality at 0.1 % strength (168 h, 0.1 % w/w, Day 7): 55%
- mortality at 0.25 % strength (168 h, 0.25 % w/w, Day 7): 60%
- mortality at 1 % strength (168 h, 1.0 % w/w, Day 7): 87.5%
- mortality at 0.025 % strength (0.025 % w/w, Hour 1): 0%
- mortality at 0.1 % strength (0.1 % w/w, Hour 1): 0%
- mortality at 0.25 % strength (0.25 % w/w, Hour 1): 0%
- mortality at 1 % strength (1.0 % w/w, Hour 1): 0%
